Results as given in ChEMBL document CHEMBL6078658, “Use of imidazo[1,5-a]quinoline scaffold as the pharmacophore in the design of bivalent ligands of central benzodiazepine receptors” (Bioorg Med Chem, 2025).

Experiments:
[1] = Displacement of [3H]flumazenil from CBR at low affinity site extracted from cerebral cortex of CD-1 albino mouse incubated for 90 mins by liquid scintillation counter analysis; assay type: tissue-based
[2] = Displacement of [3H]flumazenil from CBR at high affinity site extracted from cerebral cortex of CD-1 albino mouse incubated for 90 mins by liquid scintillation counter analysis; assay type: tissue-based
[3] = molecular target: T1, GABA-A receptor; alpha-1/beta-3/gamma-2 (Homo sapiens, UniProt P14867+P18507+P28472); experiment: Displacement of [3H]flumazenil from human recombinant alpha1-beta3-gamma2 GABAA receptors expressed in mouse LTK- cells incubated for 1 hr by liquid scintillation counter analysis; assay type: cell-based
T1 sequence (P14867 whole entry): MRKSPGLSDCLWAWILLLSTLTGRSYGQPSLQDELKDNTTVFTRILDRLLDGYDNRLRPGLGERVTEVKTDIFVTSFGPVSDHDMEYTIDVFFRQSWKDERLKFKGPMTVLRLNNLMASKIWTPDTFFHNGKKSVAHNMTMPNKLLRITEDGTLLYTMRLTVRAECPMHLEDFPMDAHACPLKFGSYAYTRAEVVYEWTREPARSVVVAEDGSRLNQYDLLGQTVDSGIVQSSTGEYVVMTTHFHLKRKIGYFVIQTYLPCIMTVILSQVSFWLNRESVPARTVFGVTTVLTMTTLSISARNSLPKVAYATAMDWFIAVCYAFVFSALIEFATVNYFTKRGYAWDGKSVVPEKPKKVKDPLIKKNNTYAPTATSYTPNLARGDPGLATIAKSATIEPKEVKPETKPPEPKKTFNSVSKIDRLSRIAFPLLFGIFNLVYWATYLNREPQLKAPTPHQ
T1 sequence (P18507 whole entry): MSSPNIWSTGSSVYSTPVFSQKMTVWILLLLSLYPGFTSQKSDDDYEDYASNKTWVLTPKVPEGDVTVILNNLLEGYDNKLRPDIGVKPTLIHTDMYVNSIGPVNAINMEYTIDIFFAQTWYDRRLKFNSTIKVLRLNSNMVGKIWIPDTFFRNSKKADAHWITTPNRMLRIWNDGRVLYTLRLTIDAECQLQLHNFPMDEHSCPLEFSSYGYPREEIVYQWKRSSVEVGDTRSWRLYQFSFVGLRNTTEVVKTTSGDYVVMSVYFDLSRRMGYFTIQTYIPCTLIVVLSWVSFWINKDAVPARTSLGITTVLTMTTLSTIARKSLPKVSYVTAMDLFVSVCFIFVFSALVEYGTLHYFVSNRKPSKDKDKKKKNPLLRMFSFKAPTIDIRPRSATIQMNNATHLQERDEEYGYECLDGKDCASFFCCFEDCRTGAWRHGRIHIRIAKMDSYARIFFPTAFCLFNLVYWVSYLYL
T1 sequence (P28472 whole entry): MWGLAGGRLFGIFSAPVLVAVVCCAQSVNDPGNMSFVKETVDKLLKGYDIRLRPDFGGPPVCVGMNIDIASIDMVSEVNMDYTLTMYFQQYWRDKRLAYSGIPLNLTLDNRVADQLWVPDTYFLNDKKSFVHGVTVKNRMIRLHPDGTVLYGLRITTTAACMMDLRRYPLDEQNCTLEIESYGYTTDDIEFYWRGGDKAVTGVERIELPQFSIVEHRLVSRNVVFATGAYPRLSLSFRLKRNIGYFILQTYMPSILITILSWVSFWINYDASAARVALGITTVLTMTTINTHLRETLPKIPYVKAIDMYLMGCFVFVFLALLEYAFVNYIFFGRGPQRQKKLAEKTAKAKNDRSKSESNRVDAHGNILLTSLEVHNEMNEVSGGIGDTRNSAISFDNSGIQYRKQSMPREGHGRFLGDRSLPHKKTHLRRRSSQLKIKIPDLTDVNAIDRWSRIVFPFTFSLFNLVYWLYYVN

[4] = molecular target: T2, GABA-A receptor; alpha-2/beta-3/gamma-2 (Homo sapiens, UniProt P18507+P28472+P47869); experiment: Displacement of [3H]flumazenil from human recombinant alpha2-beta3-gamma2 GABAA receptors expressed in mouse LTK- cells incubated for 1 hr by liquid scintillation counter analysis; assay type: cell-based
T2 sequence (P18507 whole entry): T1 sequence (P18507 whole entry)
T2 sequence (P28472 whole entry): T1 sequence (P28472 whole entry)
T2 sequence (P47869 whole entry): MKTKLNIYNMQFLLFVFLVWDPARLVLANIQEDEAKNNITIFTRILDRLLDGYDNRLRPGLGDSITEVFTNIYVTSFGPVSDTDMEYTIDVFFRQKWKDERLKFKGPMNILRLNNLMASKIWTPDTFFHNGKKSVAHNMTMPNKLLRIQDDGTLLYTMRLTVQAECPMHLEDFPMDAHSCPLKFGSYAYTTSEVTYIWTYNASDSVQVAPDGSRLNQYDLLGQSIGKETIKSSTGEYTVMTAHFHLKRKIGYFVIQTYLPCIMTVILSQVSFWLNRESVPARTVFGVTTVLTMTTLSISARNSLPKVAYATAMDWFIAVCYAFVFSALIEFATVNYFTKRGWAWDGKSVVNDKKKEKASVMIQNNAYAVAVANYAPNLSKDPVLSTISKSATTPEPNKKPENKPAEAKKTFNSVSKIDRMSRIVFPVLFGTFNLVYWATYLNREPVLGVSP

Mus musculus [5] = experiment: Anticonvulsant activity in PTZ-treated CD-1 mouse assessed as time taken for convulsion latency at 20 mg/kg pretreated for 30 mins followed by PTZ treatment measured for 30 mins post-PTZ dose (reference value: 19.3 +/- 4.1 min); assay type: functional; details: 0.5 h
Mus musculus [6] = experiment: Anticonvulsant activity in PTZ-treated CD-1 mouse assessed as time taken for death latency at 20 mg/kg pretreated for 30 mins followed by PTZ treatment measured for 30 mins post-PTZ dose (reference value: 28.4 +/- 4.8 min); assay type: functional; details: 0.5 h
Mus musculus [7] = experiment: Anxiolytic activity in CD-1 mouse assessed as time in light at 10 mg/kg treated for 30 mins by light/dark box test (reference value: 112.1 +/- 10.9 sec); assay type: functional; details: 0.5 h
Mus musculus [8] = experiment: Anxiolytic activity in CD-1 mouse assessed as time in light at 20 mg/kg treated for 30 mins by light/dark box test (reference value: 112.1 +/- 10.9 sec); assay type: functional; details: 0.5 h
Mus musculus [9] = experiment: Myorelaxant effect in CD-1 mouse assessed as time taken for myorelaxation at 20 mg/kg, po measured immediately post-dose by rota rod test (reference value: 5.0 +/- 0.4 min); assay type: functional
Mus musculus [10] = experiment: Myorelaxant effect in CD-1 mouse assessed as time taken for myorelaxation at 20 mg/kg, po measured after 15 mins post-dose by rota rod test (reference value: 3.1 +/- 0.4 min); assay type: functional; details: 0.25 h
Mus musculus [11] = experiment: Myorelaxant effect in CD-1 mouse assessed as time taken for myorelaxation at 20 mg/kg, po measured after 30 mins post-dose by rota rod test (reference value: 1.6 +/- 0.0 min); assay type: functional; details: 0.5 h
Mus musculus [12] = experiment: Myorelaxant effect in CD-1 mouse assessed as time taken for myorelaxation at 20 mg/kg, po measured after 45 mins post-dose by rota rod test (reference value: 1.0 +/- 0.2 min); assay type: functional; details: 0.75 h
Mus musculus [13] = experiment: Myorelaxant effect in CD-1 mouse assessed as time taken for myorelaxation at 20 mg/kg, po measured after 60 mins post-dose by rota rod test (reference value: 0.2 +/- 0.3 min); assay type: functional; details: 1 h
Mus musculus [14] = experiment: Improvement in learning and memory in CD-1 mouse assessed as time taken for training session at 20 mg/kg, po by passive avoidance test (reference value: 15.6 +/- 3.2 sec); assay type: functional
Mus musculus [15] = experiment: Improvement in learning and memory in CD-1 mouse assessed as time taken for retention session at 20 mg/kg, po by passive avoidance test (reference value: 15.6 +/- 3.2 sec); assay type: functional
Mus musculus [16] = experiment: Improvement in learning and memory in CD-1 mouse assessed as difference in time taken for training and retention session at 20 mg/kg, po by passive avoidance test (reference value: 76.8 sec); assay type: functional
[17] = Displacement of [3H]flumazenil from CBR extracted from cerebral cortex of CD-1 albino mouse incubated for 90 mins by liquid scintillation counter analysis; assay type: cell membranes, Membranes
Mus musculus [18] = experiment: Anxiolytic activity in CD-1 mouse assessed as time in light at 1 mg/kg treated for 30 mins by light/dark box test (reference value: 112.1 +/- 10.9 sec); assay type: functional; details: 0.5 h
Mus musculus [19] = experiment: Improvement in learning and memory in CD-1 mouse assessed as time taken for training session at 1 mg/kg, po by passive avoidance test (reference value: 15.6 +/- 3.2 sec); assay type: functional
Mus musculus [20] = experiment: Improvement in learning and memory in CD-1 mouse assessed as time taken for retention session at 1 mg/kg, po by passive avoidance test (reference value: 15.6 +/- 3.2 sec); assay type: functional
Mus musculus [21] = experiment: Improvement in learning and memory in CD-1 mouse assessed as difference in time taken for training and retention session at 1 mg/kg, po by passive avoidance test (reference value: 76.8 sec); assay type: functional

In the case of `CCOC(=O)c1ncn2c1c(C)c(C(=O)NCCCCCCCNC(=O)OC(C)(C)C)c1ccccc12`, the Ki [1] is reported as 6.4 nM, the Ki [2] is reported as 61 nM and the Ki [3] is reported as 31 nM. It also gave a Ki [4] of 33 nM.

`CCOC(=O)c1ncn2c1c(C)c(C(=O)NCCCCCCNC(=O)OC(C)(C)C)c1ccccc12` showed a Ki [1] of 35 nM, a Ki [2] of 65 nM and a Ki [3] of 10 nM. It also gave a Ki [4] of 14 nM, a Time (Mus musculus [5]) of 24.2 min and a Time (Mus musculus [6]) of 43.3 min. It also gave a Time (Mus musculus [7]) of 109.7 s, a Time (Mus musculus [8]) of 144.7 s and a Time (Mus musculus [9]) of 5.1 min. For the same compound, the Time (Mus musculus [10]) was 3.3 min, the Time (Mus musculus [11]) was 1.8 min and the Time (Mus musculus [12]) was 0.8 min. The Time (Mus musculus [13]) was 0.2 min, the Time (Mus musculus [14]) was 18.1 s and the Time (Mus musculus [15]) was 95.5 s. It also gave a Time (Mus musculus [16]) of 77.4 s.

In the case of `CCOC(=O)c1ncn2c1c(C)c(C(=O)NCCCCCCCCNC(=O)c1c(C)c3c(C(=O)OCC)ncn3c3ccccc13)c1ccccc12`, the Ki [1] is reported as 52 nM, the Ki [2] is reported as 0.05 nM and the Ki [3] is reported as 64 nM. The Ki [4] was 56 nM, the Time (Mus musculus [5]) was 20.7 min and the Time (Mus musculus [6]) was 41.8 min. It also gave a Time (Mus musculus [7]) of 96.7 s, a Time (Mus musculus [8]) of 173.4 s and a Time (Mus musculus [9]) of 4.5 min. It also gave a Time (Mus musculus [10]) of 3 min, a Time (Mus musculus [11]) of 1.4 min and a Time (Mus musculus [12]) of 0.7 min. It also gave a Time (Mus musculus [13]) of 0.2 min, a Time (Mus musculus [14]) of 14.8 s and a Time (Mus musculus [15]) of 91.8 s. The Time (Mus musculus [16]) was 77 s.

With `CCOC(=O)c1ncn2c1c(C)c(C(=O)NCCCCCCNC(=O)c1c(C)c3c(C(=O)OCC)ncn3c3ccccc13)c1ccccc12` the Ki [1] was 60 nM, the Ki [2] was 0.022 nM and the Ki [3] was 74 nM. It also gave a Ki [4] of 45 nM, a Time (Mus musculus [5]) of 22.8 min and a Time (Mus musculus [6]) of 40.5 min. The Time (Mus musculus [7]) was 114.3 s, the Time (Mus musculus [8]) was 166.2 s and the Time (Mus musculus [9]) was 4.9 min. The Time (Mus musculus [10]) was 3.2 min, the Time (Mus musculus [11]) was 1.9 min and the Time (Mus musculus [12]) was 0.7 min. It also gave a Time (Mus musculus [13]) of 0.1 min, a Time (Mus musculus [14]) of 15.3 s and a Time (Mus musculus [15]) of 86.1 s. For the same compound, the Time (Mus musculus [16]) was 70.8 s.

With `CCOC(=O)c1ncn2c1c(C)c(C(=O)NCCOCCOCCNC(=O)c1c(C)c3c(C(=O)OCC)ncn3c3ccccc13)c1ccccc12` the Ki [17] was 18 nM, the Ki [3] was 129 nM and the Ki [4] was 100 nM.

In the case of `CCOC(=O)c1ncn2c1c(C)c(C(=O)NCCOCCOCCOCCOCCOCCOCCOCCNC(=O)OC(C)(C)C)c1ccccc12`, the Ki [17] is reported as 0.66 nM, the Ki [3] is reported as 42 nM and the Ki [4] is reported as 63 nM.

Work on `CCOC(=O)c1ncn2c1c(C)c(C(=O)NCCCCCCCNC(=O)c1c(C)c3c(C(=O)OCC)ncn3c3ccccc13)c1ccccc12` yielded a Ki [1] of 12 nM, a Ki [2] of 0.001 nM and a Ki [3] of 74 nM. It also gave a Ki [4] of 74 nM.

Work on `CCOC(=O)c1ncn2c1c(C)c(C(=O)NCCCCCCCCNC(=O)OC(C)(C)C)c1ccccc12` yielded a Ki [1] of 51 nM, a Ki [2] of 0.005 nM and a Ki [3] of 39 nM. For the same compound, the Ki [4] was 42 nM.

`CCOC(=O)c1ncn2c1c(C)c(C(=O)NCCOCCOCCOCCOCCOCCOCCOCCNC(=O)c1c(C)c3c(C(=O)OCC)ncn3c3ccccc13)c1ccccc12` showed a Ki [17] of 41 nM, a Ki [3] of 245 nM and a Ki [4] of 210 nM.

With `CCOC(=O)c1ncn2c1c(C)c(C(=O)NCCOCCOCCNC(=O)OC(C)(C)C)c1ccccc12` the Ki [17] was 12 nM, the Ki [3] was 615 nM and the Ki [4] was 400 nM.

`CN1C(=O)CN=C(c2ccccc2)c2cc(Cl)ccc21` [DIAZEPAM] showed a Ki [1] of 3.5 nM, a Time (Mus musculus [18]) of 174.9 s and a Time (Mus musculus [19]) of 17.4 s. It also gave a Time (Mus musculus [20]) of 61 s and a Time (Mus musculus [21]) of 43.6 s.

`CCOC(=O)c1ncn2c1CN(C)C(=O)c1cc(F)ccc1-2` [FLUMAZENIL] showed a Ki [1] of 1.3 nM.
